Results taken from PubChem BioAssay (NCI).
“And” between values parts separate entries of the source, which are not always exact repeats. Equal values may be shown once.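 Where inhibition never reached the appropriate level, the endpoint shown equals the highest concentration tested. Otherwise, values were interpolated linearly from a five-concentration, 48-hour dose response in 96-well plates. Here, GI50 denotes the concentration required for 50% inhibition of growth. The concentration for full growth arrest is given as TGI.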

What was measured:
Experiment in all cases: DTP human tumour cell line panel, 48 h
[1] = system: TK-10 renal
[2] = system: OVCAR-8 ovarian
[3] = system: NCI-H226 lung
[4] = system: SK-OV-3 ovarian
[5] = system: MALME-3M melanoma
[6] = system: DU-145 prostate
[7] = system: KM12 colon
[8] = system: SF-539 CNS
[9] = system: NCI-H23 lung
[10] = system: OVCAR-3 ovarian

| SMILES | TGI [1] | TGI [2] | TGI [3] | TGI [4] | TGI [5] | TGI [6] | TGI [7] | TGI [8] | TGI [9] | TGI [10] | GI50 [1] | GI50 [9] | GI50 [2] | GI50 [3] | GI50 [4] | GI50 [5] | GI50 [10] | GI50 [6] | GI50 [7] | GI50 [8] |
| --- | --- | --- | --- | --- | --- | --- | --- | --- | --- | --- | --- | --- | --- | --- | --- | --- | --- | --- | --- | --- |
| CC#CC#C/C(=C/C=CC(=O)OC)SC | > 100 µM | > 100 µM | > 100 µM | > 100 µM | > 100 µM | > 100 µM | > 100 µM | > 100 µM | – | – | – | – | – | – | – | – | – | – | – | – |
| N#Cc1cccc(C2C(=O)c3ccc(C(=O)c4ccc5c(c4)C(=O)N(c4ccc(Oc6ccc(N7C(=O)c8ccc(C(=O)c9ccc%10c(c9)C(=O)N(c9cccc(C#N)c9)C%10=O)cc8C7=O)cc6)cc4)C5=O)cc3C2=O)c1 (stereo unspecified) | > 100 µM | > 100 µM | – | – | > 100 µM | – | > 100 µM | > 100 µM | > 100 µM | > 100 µM | – | – | – | – | – | – | – | – | – | – |
| COc1ccc([C@@H]2OC(=O)C3C2C(=O)O[C@H]3c2ccc(OC)cc2)cc1 (stereo partly specified) | – | > 100 µM | – | > 100 µM | – | – | > 100 µM | > 100 µM | > 100 µM | > 100 µM | – | – | – | – | – | – | – | – | – | – |
| COc1ccc(/C=C/C(=O)/C=C(O)/C=C/c2ccc(OC)c(OC)c2)cc1OC | > 100 µM | 95.9 µM | > 100 µM | > 100 µM | > 100 µM | > 100 µM | > 100 µM | – | 21.8 µM | > 100 µM | 4.03 µM | 3.94 µM | 35.5 µM | 3.59 µM | > 100 µM | 3.82 µM | 2.8 µM | 3.72 µM | 2.84 µM | – |
| CCCCCCCCCC[C@H](O)[C@H]1CC[C@@H]([C@@H](O)CC[C@H](O)[C@@H]2CCC(CCCCCCC[C@@H](O)CC3=C[C@H](C)OC3=O)O2)O1 (stereo partly specified) | 20.9 µM | – | 6.43 µM and 36 µM | – | 12.3 µM | – | – | 3.86 µM and 25.8 µM | 3.68 µM and 19.2 µM | 2.75 µM and 14.2 µM | 4.26 µM | – | 4.09 µM | 8.54 µM | – | – | 3.29 µM | – | 4.25 µM | 4.33 µM |
| CSC1=Nc2ccccc2N=C(c2ccccc2)C1 | > 100 µM | > 100 µM | > 100 µM | > 100 µM | > 100 µM | – | > 100 µM | > 100 µM | > 100 µM | > 100 µM | – | – | – | – | – | – | – | – | – | – |
| CC1=C(C(=O)Nc2ccc(C)cc2)C(c2cccc([N+](=O)[O-])c2)C(C(=O)Nc2ccc(C)cc2)=C(C)N1 | > 100 µM | > 100 µM | > 100 µM | > 100 µM | 77.2 µM | – | 40.2 µM | 36.9 µM | 70.4 µM | 95.5 µM | – | – | – | – | – | – | – | – | – | – |
| CC[As](CC)SCC1OC(OC(C)=O)C(OC(C)=O)C(OC(C)=O)C1OC(C)=O (stereo unspecified) | 30.4 µM | 31.9 µM | 28.9 µM | 29.3 µM | 10.3 µM | – | 34.7 µM | 27.4 µM | 36.4 µM | 27.6 µM | – | – | – | – | – | – | – | – | – | – |
| CC(C)C1=CC2=C(C(=O)C1=O)C13CCCC(C)(C)C1CC2OC3=O (stereo unspecified) | 28.6 µM | 35.4 µM | 49.2 µM | > 100 µM | – | 44.9 µM | > 100 µM | 46.3 µM | 61.7 µM | 38.8 µM | – | – | – | – | – | – | – | – | – | – |
| O=C1c2ccc3c4c(ccc(c24)C(=O)N1CCNCc1ccccc1)C(=O)N(CCNCc1ccccc1)C3=O | > 100 µM | 4.26 µM | – | 45.4 µM | – | 11.4 µM | 3.31 µM | 3.64 µM | 3.89 µM | 4.16 µM | 2.93 µM | 1.86 µM | 1.2 µM | – | 20.9 µM | – | 1.91 µM | 2.76 µM | 1.69 µM | 1.88 µM |
| CC(=O)Nc1cc2c3c(cccc3c1)-c1ccccc1-2 | 32.5 µM | > 100 µM | > 100 µM | 84.3 µM | – | 30.2 µM | > 100 µM | > 100 µM | > 100 µM | > 100 µM | 18.1 µM | 38.5 µM | 45.9 µM | 37.8 µM | 26.5 µM | – | 52.2 µM | 16.3 µM | 32.7 µM | > 100 µM |
| COc1ccc2nc3ccccc3c(NCCN(CCCl)CCCl)c2c1 | 5.59 µM | 2.9 µM | 4.74 µM | 5.05 µM | 3.01 µM | – | 4.37 µM | – | – | 1.08 µM | – | – | – | – | – | – | – | – | – | – |
| C=C(Br)COc1ccc2c(C)cc(=O)oc2c1 | > 100 µM | > 100 µM | > 100 µM | – | > 100 µM | > 100 µM | 12.1 µM | > 100 µM | > 100 µM | > 100 µM | – | – | – | – | – | – | – | – | – | – |
| CC(=O)O[C@@H]1CC[C@@]2(C)C(=O)C34C[C@@]5(C)C([C@@H](C)CCCC(C)C)CCC5(C)[C@](O)(O3)C(=O)[C@H]4C2C1(C)C (stereo partly specified) | 30.5 µM | 32.9 µM | 29.6 µM | 32.4 µM | 33.2 µM | – | 24 µM | 39.4 µM | 27.4 µM | 25.1 µM | – | – | – | – | – | – | – | – | – | – |
| Cc1cc(Cl)cc2c1NC(=O)C2(O)C(C(=O)c1ccccc1)c1ccccc1 (stereo unspecified) | > 100 µM | > 100 µM | > 100 µM and 58.3 µM | > 100 µM | > 100 µM and 49.2 µM | – | > 100 µM | 39.7 µM | > 100 µM | > 100 µM and 54.1 µM | – | – | > 100 µM and 32.5 µM | – | – | 91.5 µM and 22.7 µM | 53 µM and 22.4 µM | – | – | – |
| CC1(C)C(CC(=O)O)CCCC1CC(=O)O (stereo unspecified) | > 100 µM | > 100 µM | > 100 µM | > 100 µM | – | > 100 µM | > 100 µM | – | > 100 µM | > 100 µM | – | – | – | – | – | – | – | – | – | – |
| CCN(CC)C(=O)CC12CCCCC1=Nc1ccccc12 (stereo unspecified) | > 100 µM | > 100 µM | – | > 100 µM | > 100 µM | – | > 100 µM | > 100 µM | > 100 µM | > 100 µM | – | – | – | – | – | – | – | – | – | – |
| COC(=O)c1cccc(NC(=O)c2ccc(NC3=C(Cl)C(=O)N(Cc4ccccc4)C3=O)cc2)c1 | 63.4 µM | 32.1 µM | 35.2 µM | > 100 µM | – | 25.2 µM | 41.7 µM | 29.5 µM | 22.4 µM | 25.9 µM | 23.4 µM | 8.57 µM | 11.4 µM | 7.25 µM | 84 µM | – | 6.45 µM | 7.9 µM | 19.7 µM | 14.7 µM |
| CN(C)c1ccc(/C=c2/c3cc(O)ccc3n3c2cc(-c2ccccc2)[n+]3C)cc1 | > 100 µM | 2.03 µM | > 100 µM | > 100 µM | – | 6.07 µM | 2.29 µM | – | 4.64 µM | – | 4.88 µM | – | – | – | 6.13 µM | – | – | – | – | – |
